{"source": "patent US20080096894A1", "about": "“Anti-Bacterial Compounds” (ASTON UNIVERSITY, priority 2005, published 2008)", "experiment_in_all_cases": "MIC, agar dilution, multipoint inoculator", "key": {"MRSA": {"system": "MRSA", "format": "cell-based, methicillin-resistant Staphylococcus aureus", "conditions": "for MIC: upper value of MIC reading, in µg/mL; for MRSA MIC range: panel of ten MRSA strains (clinical isolates)", "protocol": "(§1) This activity was measured using a multipoint inoculator method as follows. The MIC for each compound was measured using an agar dilution method (Onda, H., et al., Int. J. Antimicrob. Agents. 18, 263 (2001)) (Mueller Hinton agar) by means of a multipoint inoculator delivering 10^4 colony forming units per spot.\n‘Staph’ refers to the reference strain of S. aureus (NCTC 6571). A tick in the MRSA column refers to a positive zone against MRSA strain 96-7474, and the MIC range (in μg/ml) which follows is that found against a panel of ten MRSA strains. Where MIC values are given for MRSA, these are stated as a range of values, as testing was carried out on a panel of clinical isolates."}, "E. faecalis": {"system": "E. faecalis", "format": "cell-based", "conditions": "upper value of MIC reading", "protocol": "as §1"}, "S. aboni": {"system": "S. aboni", "format": "cell-based", "conditions": "S. aboni NCTC 6017; upper value of MIC reading", "protocol": "as §1"}, "S. haemolyticus": {"system": "S. haemolyticus", "format": "cell-based", "conditions": "S. haemolyticus Isolate 1; upper value of MIC reading", "protocol": "as §1"}, "B. bronchiseptica": {"system": "B. bronchiseptica", "format": "cell-based", "conditions": "B. bronchiseptica NCTC 8344; upper value of MIC reading", "protocol": "as §1"}, "S. maltophilia": {"system": "S. maltophilia", "format": "cell-based", "conditions": "S. maltophilia NCTC 10257; upper value of MIC reading", "protocol": "as §1"}, "S. marcesens": {"system": "S. marcesens", "format": "cell-based, Serratia marcescens", "conditions": "S. marcesens 4444; upper value of MIC reading", "protocol": "as §1"}, "S. epidemisis": {"system": "S. epidemisis", "format": "cell-based, Staphylococcus epidermidis", "conditions": "upper value of MIC reading", "protocol": "as §1"}, "E. faecium": {"system": "E. faecium", "format": "cell-based, Enterococcus faecium", "conditions": "upper value of MIC reading", "protocol": "as §1"}, "S. aureus": {"system": "S. aureus", "format": "cell-based, Staphylococcus aureus", "conditions": "upper value of MIC reading", "protocol": "as §1"}, "P. auriginosa": {"system": "P. auriginosa", "format": "cell-based, Pseudomonas aeruginosa", "conditions": "P. auriginosa NCTC 6749; upper value of MIC reading", "protocol": "as §1"}, "E. cloacae": {"system": "E. cloacae", "format": "cell-based, Enterobacter cloacae", "conditions": "E. cloacae NCTC 11582; upper value of MIC reading", "protocol": "as §1"}, "K. pneumoniae": {"system": "K. pneumoniae", "format": "cell-based, Klebsiella pneumoniae", "conditions": "K. pneumoniae 327; upper value of MIC reading", "protocol": "as §1"}}, "data": [{"smiles": "Oc1cc(O)c(C=NNc2ccccn2)c(O)c1", "note": "[HDcd]", "values": [{"measurement": "MIC", "setting": "MRSA; MRSA Isolate 1", "value": 256}, {"measurement": "MIC", "setting": "MRSA; MRSA Isolate 2", "value": 256}, {"measurement": "MIC", "setting": "MRSA; MRSA Isolate 3", "value": 256}, {"measurement": "MIC", "setting": "MRSA; MRSA Isolate 4", "value": 256}, {"measurement": "MIC", "setting": "MRSA; MRSA Isolate 5", "value": 256}, {"measurement": "MIC", "setting": "MRSA; MRSA Isolate 6", "value": 256}, {"measurement": "MIC", "setting": "MRSA; MRSA Isolate 7", "value": 256}, {"measurement": "MIC", "setting": "MRSA; MRSA Isolate 8", "value": 256}, {"measurement": "MIC", "setting": "MRSA; MRSA Isolate 9", "value": 256}, {"measurement": "MIC", "setting": "MRSA; MRSA Isolate 10", "value": 256}, {"measurement": "MRSA MIC range", "setting": "MRSA", "value": "128 to 256", "unit": "µg/mL"}, {"measurement": "MIC", "setting": "E. faecalis; E. faecalis EBH1", "value": 256, "unit": "µg/mL"}, {"measurement": "MIC", "setting": "E. faecalis; E. faecalis Isolate 1", "value": 128, "unit": "µg/mL"}, {"measurement": "MIC", "setting": "E. faecalis; E. faecalis Isolate 2", "value": 128, "unit": "µg/mL"}, {"measurement": "MIC", "setting": "E. faecalis; E. faecalis Isolate 3", "value": 128, "unit": "µg/mL"}, {"measurement": "MIC", "setting": "E. faecalis; E. faecalis Isolate 4", "value": 256, "unit": "µg/mL"}, {"measurement": "MIC", "setting": "E. faecalis; E. faecalis Isolate 5", "value": 128, "unit": "µg/mL"}, {"measurement": "MIC", "setting": "E. faecalis; E. faecalis NCTC 5957", "value": 256, "unit": "µg/mL"}, {"measurement": "MIC", "setting": "S. aboni", "value": 128, "unit": "µg/mL"}, {"measurement": "MIC", "setting": "S. haemolyticus", "value": 128, "unit": "µg/mL"}, {"measurement": "MIC", "setting": "B. bronchiseptica", "value": 256, "unit": "µg/mL"}, {"measurement": "MIC", "setting": "S. maltophilia", "value": 128, "unit": "µg/mL"}, {"measurement": "MIC", "setting": "S. marcesens", "value": 256, "unit": "µg/mL"}, {"measurement": "MIC", "setting": "S. epidemisis; S. epidemisis Isolate 1", "value": 128, "unit": "µg/mL"}, {"measurement": "MIC", "setting": "S. epidemisis; S. epidemisis NCTC 11047", "value": 128, "unit": "µg/mL"}, {"measurement": "MIC", "setting": "E. faecium; E. faecium ACTCC 10541", "value": 256, "unit": "µg/mL"}, {"measurement": "MIC", "setting": "E. faecium; E. faecium NCTC 7171", "value": 256, "unit": "µg/mL"}, {"measurement": "MIC", "setting": "S. aureus; S. aureus Cowan 1", "value": 256, "unit": "µg/mL"}, {"measurement": "MIC", "setting": "S. aureus; S. aureus NCTC 6571", "value": 256, "unit": "µg/mL"}, {"measurement": "MIC", "setting": "S. aureus; S. aureus NCTC 10788", "value": 256, "unit": "µg/mL"}, {"measurement": "MIC", "setting": "P. auriginosa", "value": 256, "unit": "µg/mL"}, {"measurement": "MIC", "setting": "E. cloacae", "value": 256, "unit": "µg/mL"}, {"measurement": "MIC", "setting": "K. pneumoniae", "value": 256, "unit": "µg/mL"}]}, {"smiles": "NC(=NN=Cc1ccc(O)c(O)c1)c1ccc2ccccc2n1", "note": "[QNca]", "values": [{"measurement": "MIC", "setting": "MRSA; MRSA Isolate 1", "value": 128}, {"measurement": "MIC", "setting": "MRSA; MRSA Isolate 2", "value": 128}, {"measurement": "MIC", "setting": "MRSA; MRSA Isolate 3", "value": 128}, {"measurement": "MIC", "setting": "MRSA; MRSA Isolate 4", "value": 128}, {"measurement": "MIC", "setting": "MRSA; MRSA Isolate 5", "value": 128}, {"measurement": "MIC", "setting": "MRSA; MRSA Isolate 6", "value": 128}, {"measurement": "MIC", "setting": "MRSA; MRSA Isolate 7", "value": 128}, {"measurement": "MIC", "setting": "MRSA; MRSA Isolate 8", "value": 128}, {"measurement": "MIC", "setting": "MRSA; MRSA Isolate 9", "value": 128}, {"measurement": "MIC", "setting": "MRSA; MRSA Isolate 10", "value": 128}, {"measurement": "MRSA MIC range", "setting": "MRSA", "value": "64 to 128", "unit": "µg/mL"}, {"measurement": "MIC", "setting": "E. faecalis; E. faecalis EBH1", "value": 256, "unit": "µg/mL"}, {"measurement": "MIC", "setting": "E. faecalis; E. faecalis Isolate 1", "value": 256, "unit": "µg/mL"}, {"measurement": "MIC", "setting": "E. faecalis; E. faecalis Isolate 2", "value": 256, "unit": "µg/mL"}, {"measurement": "MIC", "setting": "E. faecalis; E. faecalis Isolate 3", "value": 256, "unit": "µg/mL"}, {"measurement": "MIC", "setting": "E. faecalis; E. faecalis Isolate 4", "value": 256, "unit": "µg/mL"}, {"measurement": "MIC", "setting": "E. faecalis; E. faecalis Isolate 5", "value": 256, "unit": "µg/mL"}, {"measurement": "MIC", "setting": "E. faecalis; E. faecalis NCTC 5957", "value": 256, "unit": "µg/mL"}, {"measurement": "MIC", "setting": "S. aboni", "value": 256, "unit": "µg/mL"}, {"measurement": "MIC", "setting": "S. haemolyticus", "value": 128, "unit": "µg/mL"}, {"measurement": "MIC", "setting": "S. maltophilia", "value": 256, "unit": "µg/mL"}, {"measurement": "MIC", "setting": "S. marcesens", "value": 256, "unit": "µg/mL"}, {"measurement": "MIC", "setting": "S. epidemisis; S. epidemisis Isolate 1", "value": 64, "unit": "µg/mL"}, {"measurement": "MIC", "setting": "S. epidemisis; S. epidemisis NCTC 11047", "value": 64, "unit": "µg/mL"}, {"measurement": "MIC", "setting": "E. faecium; E. faecium ACTCC 10541", "value": 256, "unit": "µg/mL"}, {"measurement": "MIC", "setting": "E. faecium; E. faecium NCTC 7171", "value": 256, "unit": "µg/mL"}, {"measurement": "MIC", "setting": "S. aureus; S. aureus Cowan 1", "value": 128, "unit": "µg/mL"}, {"measurement": "MIC", "setting": "S. aureus; S. aureus NCTC 6571", "value": 128, "unit": "µg/mL"}, {"measurement": "MIC", "setting": "S. aureus; S. aureus NCTC 10788", "value": 128, "unit": "µg/mL"}, {"measurement": "MIC", "setting": "P. auriginosa", "value": 256, "unit": "µg/mL"}, {"measurement": "MIC", "setting": "E. cloacae", "value": 32, "unit": "µg/mL"}, {"measurement": "MIC", "setting": "K. pneumoniae", "value": 256, "unit": "µg/mL"}]}, {"smiles": "O=Cc1cc([N+](=O)[O-])ccc1O", "note": "[cj]", "values": [{"measurement": "MIC", "setting": "MRSA; MRSA Isolate 1", "value": 2}, {"measurement": "MIC", "setting": "MRSA; MRSA Isolate 2", "value": 4}, {"measurement": "MIC", "setting": "MRSA; MRSA Isolate 3", "value": 2}, {"measurement": "MIC", "setting": "MRSA; MRSA Isolate 4", "value": 2}, {"measurement": "MIC", "setting": "MRSA; MRSA Isolate 5", "value": 2}, {"measurement": "MIC", "setting": "MRSA; MRSA Isolate 6", "value": 4}, {"measurement": "MIC", "setting": "MRSA; MRSA Isolate 7", "value": 4}, {"measurement": "MIC", "setting": "MRSA; MRSA Isolate 8", "value": 4}, {"measurement": "MIC", "setting": "MRSA; MRSA Isolate 9", "value": 4}, {"measurement": "MIC", "setting": "MRSA; MRSA Isolate 10", "value": 4}, {"measurement": "MIC", "setting": "E. faecalis; E. faecalis Isolate 1", "value": 256, "unit": "µg/mL"}, {"measurement": "MIC", "setting": "E. faecalis; E. faecalis Isolate 5", "value": 256, "unit": "µg/mL"}, {"measurement": "MIC", "setting": "S. aboni", "value": 1, "unit": "µg/mL"}, {"measurement": "MIC", "setting": "B. bronchiseptica", "value": 256, "unit": "µg/mL"}, {"measurement": "MIC", "setting": "S. maltophilia", "value": 256, "unit": "µg/mL"}, {"measurement": "MIC", "setting": "S. epidemisis; S. epidemisis Isolate 1", "value": 2, "unit": "µg/mL"}, {"measurement": "MIC", "setting": "S. epidemisis; S. epidemisis NCTC 11047", "value": 2, "unit": "µg/mL"}, {"measurement": "MIC", "setting": "S. aureus; S. aureus Cowan 1", "value": 16, "unit": "µg/mL"}, {"measurement": "MIC", "setting": "S. aureus; S. aureus NCTC 6571", "value": 4, "unit": "µg/mL"}, {"measurement": "MIC", "setting": "S. aureus; S. aureus NCTC 10788", "value": 2, "unit": "µg/mL"}, {"measurement": "MIC", "setting": "P. auriginosa", "value": 256, "unit": "µg/mL"}, {"measurement": "MIC", "setting": "E. cloacae", "value": 256, "unit": "µg/mL"}, {"measurement": "MIC", "setting": "K. pneumoniae", "value": 256, "unit": "µg/mL"}]}]}
